# Measurements as given in ChEMBL document CHEMBL1138397, “New C25 carbamate rifamycin derivatives are resistant to inactivation by ADP-ribosyl transferases” (2007).
# How the values were obtained:
# [1] = system: Escherichia coli; assay: Antimicrobial activity against Arr-2 negative Escherichia coli DH5alpha bearing pCTF104P; format: functional
# [2] = system: Mycolicibacterium smegmatis; assay: Antimicrobial activity against Arr-1 positive Mycobacterium smegmatis DSM 43756; format: functional
# [3] = system: Escherichia coli; assay: Antimicrobial activity against Arr-2 positive Escherichia coli CGSC 5163 lpxC101 mutant bearing pCTV104; format: functional
# [4] = system: Escherichia coli; assay: Ratio of MIC for Arr-2 positive Escherichia coli CGSC 5163 lpxC101 mutant bearing pCTV104 to MIC for Arr-2 negative Escherichia coli CGSC 5163 lpxC101 mutant bearing pCTV104P; format: functional
# [5] = system: Staphylococcus aureus; assay: Antimicrobial activity against rifampin-sensitive Staphylococcus aureus ATCC 29213; format: functional
# [6] = system: Mycolicibacterium smegmatis; assay: Ratio of MIC for Arr-1 positive Mycobacterium smegmatis DSM 43756 to MIC for Arr-1 negative Mycobacterium smegmatis DSM 43756Kml; format: functional
# [7] = system: Escherichia coli; assay: Antimicrobial activity against Arr-2 positive Escherichia coli DH5-alpha bearing pCTF104; format: functional; conditions: DH5alpha
# [8] = system: Mycolicibacterium smegmatis; assay: Antimicrobial activity against Arr-1 negative Mycobacterium smegmatis DSM 43756Kml; format: functional
# [9] = system: Staphylococcus aureus; assay: Antimicrobial activity against rifampin-resistant Staphylococcus aureus ATCC 29213 rpoB (His481Tyr) mutant; format: functional
# [10] = system: Escherichia coli; assay: Ratio of MIC for Arr-2 positive Escherichia coli DH5-alpha bearing pCTF104 to MIC for Arr-2 negative Escherichia coli DH5-alpha bearing pCTF104P; format: functional, DH5alpha
# [11] = system: Escherichia coli; assay: Antimicrobial activity against Arr-2 negative Escherichia coli CGSC 5163 lpxC101 mutant bearing pCTV104P; format: functional
compound,measurement,setting,value
CO[C@H]1/C=C/O[C@@]2(C)Oc3c(C)c(O)c4c(c3C2=O)C(=O)C(N2CCOCC2)=C(NC(=O)/C(C)=C\C=C\[C@H](C)[C@H](O)[C@@H](C)[C@@H](O)[C@@H](C)[C@H](OC(=O)N2CCC(NCc3ccccc3)CC2)[C@@H]1C)C4=O,MIC,[1],8 µg/mL
same,MIC,[2],0.12 µg/mL
same,MIC,[3],0.24 µg/mL
same,Ratio,[4],1
same,MIC,[5],0.03 µg/mL
same,Ratio,[6],1
same,MIC,[7],16 µg/mL
same,MIC,[8],0.12 µg/mL
same,MIC,[9],> 63 µg/mL
same,Ratio,[10],2
same,MIC,[11],0.24 µg/mL
CO[C@H]1/C=C/O[C@@]2(C)Oc3c(C)c(O)c4c(c3C2=O)C(=O)C(N2CCOCC2)=C(NC(=O)/C(C)=C\C=C\[C@H](C)[C@H](O)[C@@H](C)[C@@H](O)[C@@H](C)[C@H](OC(=O)N2CCOCC2)[C@@H]1C)C4=O,MIC,[1],31 µg/mL
same,MIC,[2],2 µg/mL
same,MIC,[3],1 µg/mL
same,Ratio,[4],1
same,MIC,[5],0.03 µg/mL
same,Ratio,[6],2
same,MIC,[7],63 µg/mL
same,MIC,[8],1 µg/mL
same,Ratio,[10],2
same,MIC,[11],1 µg/mL
CO[C@H]1/C=C/O[C@@]2(C)Oc3c(C)c(O)c4c(c3C2=O)C(=O)C(N2CCOCC2)=C(NC(=O)/C(C)=C\C=C\[C@H](C)[C@H](O)[C@@H](C)[C@@H](O)[C@@H](C)[C@H](OC(=O)NCCN(C)C)[C@@H]1C)C4=O,MIC,[1],4 µg/mL
same,MIC,[2],0.5 µg/mL
same,MIC,[3],0.24 µg/mL
same,Ratio,[4],1
same,MIC,[5],0.006 µg/mL
same,Ratio,[6],4
same,MIC,[7],8 µg/mL
same,MIC,[8],0.12 µg/mL
same,MIC,[9],> 63 µg/mL
same,Ratio,[10],2
same,MIC,[11],0.24 µg/mL
C=CCNC(=O)O[C@H]1[C@H](C)[C@H](O)[C@H](C)[C@@H](O)[C@@H](C)/C=C/C=C(/C)C(=O)NC2=C(N3CCOCC3)C(=O)c3c(c(O)c(C)c4c3C(=O)[C@@](C)(O/C=C/[C@H](OC)[C@H]1C)O4)C2=O,MIC,[1],8 µg/mL
same,MIC,[2],2 µg/mL
same,MIC,[3],4 µg/mL
same,Ratio,[4],16
same,MIC,[5],0.004 µg/mL
same,Ratio,[6],>32
same,MIC,[7],> 250 µg/mL
same,MIC,[8],0.06 µg/mL
same,Ratio,[10],>32
same,MIC,[11],0.24 µg/mL
CO[C@H]1/C=C/O[C@@]2(C)Oc3c(C)c(O)c4c(c3C2=O)C(=O)C(N2CCOCC2)=C(NC(=O)/C(C)=C\C=C\[C@H](C)[C@H](O)[C@@H](C)[C@@H](O)[C@@H](C)[C@H](OC(=O)NCc2ccc(N(C)C)cc2)[C@@H]1C)C4=O,MIC,[1],63 µg/mL
same,MIC,[2],0.06 µg/mL
same,MIC,[3],16 µg/mL
same,Ratio,[4],16
same,MIC,[5],0.06 µg/mL
same,Ratio,[6],1
same,MIC,[7],> 250 µg/mL
same,MIC,[8],0.06 µg/mL
same,MIC,[9],> 63 µg/mL
same,Ratio,[10],>4
same,MIC,[11],1 µg/mL
COc1ccccc1-c1cc(CNC(=O)O[C@H]2[C@H](C)[C@H](O)[C@H](C)[C@@H](O)[C@@H](C)/C=C/C=C(/C)C(=O)NC3=C(N4CCOCC4)C(=O)c4c(c(O)c(C)c5c4C(=O)[C@@](C)(O/C=C/[C@H](OC)[C@H]2C)O5)C3=O)on1,MIC,[1],> 250 µg/mL
same,MIC,[2],0.12 µg/mL
same,MIC,[3],2 µg/mL
same,Ratio,[4],2
same,MIC,[5],0.06 µg/mL
same,Ratio,[6],1
same,MIC,[7],> 250 µg/mL
same,MIC,[8],0.12 µg/mL
same,MIC,[11],1 µg/mL
CO[C@H]1/C=C/O[C@@]2(C)Oc3c(C)c(O)c4c(c3C2=O)C(=O)C(N2CCOCC2)=C(NC(=O)/C(C)=C\C=C\[C@H](C)[C@H](O)[C@@H](C)[C@@H](O)[C@@H](C)[C@H](OC(=O)NCc2cc(-c3ccccn3)no2)[C@@H]1C)C4=O,MIC,[1],4 µg/mL
same,MIC,[2],0.5 µg/mL
same,MIC,[3],2 µg/mL
same,MIC,[5],0.008 µg/mL
same,Ratio,[6],1
same,MIC,[7],4 µg/mL
same,MIC,[8],0.5 µg/mL
same,MIC,[9],> 63 µg/mL
same,Ratio,[10],1
same,MIC,[11],2 µg/mL
CO[C@H]1/C=C/O[C@@]2(C)Oc3c(C)c(O)c4c(O)c(c(/C=N/N5CCN(C)CC5)c(O)c4c3C2=O)NC(=O)/C(C)=C\C=C\[C@H](C)[C@H](O)[C@@H](C)[C@@H](O)[C@@H](C)[C@H](OC(C)=O)[C@@H]1C [RIFAMPIN],MIC,[1],8 µg/mL
same,MIC,[2],32 µg/mL
same,MIC,[3],8 µg/mL
same,Ratio,[4],32
same,MIC,[5],0.008 µg/mL
same,Ratio,[6],64
same,MIC,[7],> 250 µg/mL
same,MIC,[8],0.5 µg/mL
same,MIC,[9],> 63 µg/mL
same,Ratio,[10],>32
same,MIC,[11],0.24 µg/mL
CO[C@H]1/C=C/O[C@@]2(C)Oc3c(C)c(O)c4c(c3C2=O)C(=O)C(N2CCOCC2)=C(NC(=O)/C(C)=C\C=C\[C@H](C)[C@H](O)[C@@H](C)[C@@H](O)[C@@H](C)[C@H](OC(=O)NCc2ccc(C(F)(F)F)cc2)[C@@H]1C)C4=O,MIC,[1],> 250 µg/mL
same,MIC,[2],0.12 µg/mL
same,MIC,[3],1 µg/mL
same,Ratio,[4],2
same,MIC,[5],0.03 µg/mL
same,Ratio,[6],>4
same,MIC,[7],> 250 µg/mL
same,MIC,[8],≤ 0.03 µg/mL
same,MIC,[11],0.5 µg/mL
CO[C@H]1/C=C/O[C@@]2(C)Oc3c(C)c(O)c4c(c3C2=O)C(=O)C(N2CCOCC2)=C(NC(=O)/C(C)=C\C=C\[C@H](C)[C@H](O)[C@@H](C)[C@@H](O)[C@@H](C)[C@H](OC(=O)NCc2cccc(Cl)c2)[C@@H]1C)C4=O,MIC,[1],> 250 µg/mL
same,MIC,[2],0.12 µg/mL
same,MIC,[3],0.5 µg/mL
same,Ratio,[4],2
same,MIC,[5],0.008 µg/mL
same,Ratio,[6],>4
same,MIC,[7],> 250 µg/mL
same,MIC,[8],≤ 0.03 µg/mL
same,MIC,[9],> 63 µg/mL
same,MIC,[11],0.24 µg/mL
CO[C@H]1/C=C/O[C@@]2(C)Oc3c(C)c(O)c4c(c3C2=O)C(=O)C(N2CCOCC2)=C(NC(=O)/C(C)=C\C=C\[C@H](C)[C@H](O)[C@@H](C)[C@@H](O)[C@@H](C)[C@H](OC(=O)NCCO)[C@@H]1C)C4=O,MIC,[1],8 µg/mL
same,MIC,[2],8 µg/mL
same,MIC,[3],8 µg/mL
same,Ratio,[4],16
same,MIC,[5],0.016 µg/mL
same,Ratio,[6],4
same,MIC,[7],> 250 µg/mL
same,MIC,[8],2 µg/mL
same,MIC,[9],16 µg/mL
same,Ratio,[10],>32
same,MIC,[11],0.5 µg/mL
COc1ccc(CNC(=O)O[C@H]2[C@H](C)[C@H](O)[C@H](C)[C@@H](O)[C@@H](C)/C=C/C=C(/C)C(=O)NC3=C(N4CCOCC4)C(=O)c4c(c(O)c(C)c5c4C(=O)[C@@](C)(O/C=C/[C@H](OC)[C@H]2C)O5)C3=O)cc1,MIC,[1],16 µg/mL
same,MIC,[2],0.06 µg/mL
same,MIC,[3],0.5 µg/mL
same,Ratio,[4],1
same,MIC,[5],0.016 µg/mL
same,Ratio,[6],2
same,MIC,[7],> 250 µg/mL
same,MIC,[8],0.03 µg/mL
same,MIC,[9],4 µg/mL
same,Ratio,[10],>16
same,MIC,[11],0.5 µg/mL
CNC(=O)O[C@H]1[C@H](C)[C@H](O)[C@H](C)[C@@H](O)[C@@H](C)/C=C/C=C(/C)C(=O)NC2=C(N3CCOCC3)C(=O)c3c(c(O)c(C)c4c3C(=O)[C@@](C)(O/C=C/[C@H](OC)[C@H]1C)O4)C2=O,MIC,[1],8 µg/mL
same,MIC,[2],4 µg/mL
same,MIC,[3],16 µg/mL
same,Ratio,[4],32
same,MIC,[5],0.004 µg/mL
same,Ratio,[6],8
same,MIC,[7],> 250 µg/mL
same,MIC,[8],0.5 µg/mL
same,MIC,[9],4 µg/mL
same,Ratio,[10],>32
same,MIC,[11],0.5 µg/mL
